Experimental data as given in patent publication US20260245700A1, “METHOD FOR GIVING A RECOMMENDATION ON THE DIETARY ENERGY OF A POULTRY DIET” (Evonik Operations GmbH, priority 2023, published 2026).
Read-outs that look alike come from different tables or passages of the source.

Columns and labels:
broilers [1] = test: Trials in which GAA compensates dietary energy reduction (energy-sparing value); format: in vivo
Excerpt: Reduction of dietary energy content and adding GAA to the feed restored broiler performance, which supports this conclusion (Malins et al., 2017; Mousavi S. N., Afsar A., Lotfollahian H. (2013) Effects of guanidinoacetic acid supplementation to broiler diets with varying energy contents, Journal of Applied Poultry Research, Volume 22, Issue 1, 2013, Pages 47-54, ISSN 1056-6171, https://doi.org/10.3382/japr.2012-00575; Heger, J., J. Zelenka, V. Machander, C. Cruz, M. Lestak, and D. Hampel. (2014) “Effects of Guanidinoacetic Acid Supplementation to Broiler Diets with Varying Energy Content.” Acta Universitatis Agriculturae Silviculturae Mendelianae Brunensis 62: 477-485. doi:10.11118/actaun201462030477; Abudabos, A. M., F. Saleh, A. Lemme, and H. A. H. Zakaria (2014) “The Relationship between Guanidino Acetic Acid and Metabolisable Energy Level of Diets on Performance of Broiler Chickens.” Italian Journal of Animal Science 13: 548-556. doi:10.4081/ijas.2014.3269).
The energy reduction level as well as the GAA supplementation rate was not always the same in trails in which GAA was used to compensate for energy reduction. In most trials dietary energy level of a standard diet was reduced by 50 kcal/kg feed and 0.06% GAA was supplemented to maintain bird performance. This would be equivalent to an energy-sparing value of 83.333 kcal/kg of GAA. However, considering all 20 identified independent trials in which GAA was used to compensate for dietary energy reduction, a wide range of energy-sparing values from 41.667 to 568.333 kcal/kg was tested. […] It can be predicted that an energy-sparing value of 163.889 kcal/kg GAA maintains BWG of the birds, whereas there is still a small improvement for FCR. For FCR, it was found out that even an energy-sparing value of 197.222 kcal/kg GAA maintains performance.

broilers [2] = details: GAA supplemented in broiler diets, compared to non-supplemented diets, asymptotic; cited from earlier work
broilers [3] = details: linear regression, relative scale, control = 100%, cited from earlier work
broiler chickens = details: cited from earlier work
broilers [4] = details: reduced dietary energy content plus GAA added to the feed; cited from earlier work
broilers [5] = details: EFSA 2009; Tossenberger et al. 2016; cited from earlier work
[6] = Vranes et al. 2017; relatively stable during pelleting or extruding; cited from earlier work

Compound: N=C(N)NCC(=O)O [GAA, Guanidinoacetic acid]
- energy-sparing value that maintains performance for FCR (broilers [1]; from 20 independent trials): 197.222 kcal/kg GAA
- energy GAA can compensate (energy-sparing value) (broilers [1]; overall, 20 independent trials): more than 83.333 kcal/kg
- energy-sparing value that maintains BWG (broilers [1]; predicted from 20 independent trials, still a small improvement for FCR): 163.889 kcal/kg GAA
- increase of muscle CREA, maximum (broilers [2]): ≤ 29%
- FCR improvement (broilers [3]; GAA dose 0.6 g/kg): 4.5 points
- FCR improvement (broilers [3]; GAA dose 1.2 g/kg): 8.8 points
- replacement efficiency (broiler chickens; 1.7 g/kg L-ARG compensated by 1.2 g/kg GAA (Dilger et al. 2013)): 142%
- circulatory ARG levels (broiler chickens; birds fed ARG-deficient diets (DeGroot et al. 2018)): increased
- L-ARG compensated (broiler chickens; by 1.2 g/kg GAA (Dilger et al. 2013)): 1.7 g/kg
- supplemental L-ARG needed to reach a given feed conversion ratio (broiler chickens; very ARG-deficient diet, at 1.2 g/kg supplemental GAA (Dilger et al. 2013)): 2.1 g/kg
- ARG-sparing effect (broiler chickens; very deficient ARG diets (Dilger et al. 2013)): 143%
- broiler performance (broilers [4]): restored
- bioavailability (broilers [5]): high
- thermal stability [6]: high
